pIC50: −log10 of the molar value.
How the values were obtained:
RAW264.7 cells [1] = experiment: PGE2 production by macrophage RAW264.7, PGE2-EIA kit; assay type: cell-based, mouse; details: LPS + IFN-γ, 2 days, relative level versus control
From the text: (§1) RAW264.7 cells, a murine macrophage cell strain, were suspended in PRMI1640 medium supplied with 10% (v/v) fetal calf serum (hereinafter abbreviated as “FCS”) to give a cell suspension with a cell concentration of 1×10^6 cells/ml. […] The experimental system without the test samples described above was set as control. […] NO production, PGE2 production and macrophage growth are indicated as relative levels versus controls.

[2] = test system: Mouse melanoma cell line B16; experiment: Melanin synthesis in B16 cells; assay type: cell-based; details: 5 days, per mg protein versus control
Protocol: As control, a system with no test sample was provided. […] The amount of protein was measured by conventional Bradfordmethod and the amount of melanin per 1 mg of protein was calculated. The amount of melanin (%) was calculated according to Formula 4, and the living cell rate (%) was calculated according to Formula 5.
As control, a system with no test sample was provided. […] The amount of protein was measured by conventional Bradford method and the amount of melanin per 1 mg of protein was calculated. The amount of melanin (%) was calculated according to Formula 4.

RAW264.7 cells [3] = experiment: Macrophage growth, living cell count; assay type: cell-based, mouse; details: 2 days, relative level versus control
From the text: as §1

COX-1 = target: T1, COX-1 (Ovis aries, UniProt P05979); experiment: COX Inhibitor Screening Assay Kit, COX-1; assay type: biochemical
T1 construct: purchased Cayman Chemical Company
T1 sequence (P05979 25-600): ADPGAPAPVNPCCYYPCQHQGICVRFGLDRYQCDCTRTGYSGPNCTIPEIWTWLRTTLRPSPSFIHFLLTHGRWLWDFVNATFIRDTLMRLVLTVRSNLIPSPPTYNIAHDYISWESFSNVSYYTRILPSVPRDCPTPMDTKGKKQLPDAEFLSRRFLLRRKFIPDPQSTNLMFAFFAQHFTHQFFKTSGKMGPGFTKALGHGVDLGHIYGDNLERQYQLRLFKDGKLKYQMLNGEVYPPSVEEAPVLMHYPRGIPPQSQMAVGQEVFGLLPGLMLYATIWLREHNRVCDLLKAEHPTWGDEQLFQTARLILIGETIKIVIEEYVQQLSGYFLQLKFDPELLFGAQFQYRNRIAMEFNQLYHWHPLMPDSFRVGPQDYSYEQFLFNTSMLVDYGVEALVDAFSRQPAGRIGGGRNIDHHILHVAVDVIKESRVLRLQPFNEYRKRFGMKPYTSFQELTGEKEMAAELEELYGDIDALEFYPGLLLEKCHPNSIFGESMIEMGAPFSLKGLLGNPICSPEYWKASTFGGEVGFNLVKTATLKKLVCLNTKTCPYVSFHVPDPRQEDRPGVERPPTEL
From the text: Fifty percent inhibitory concentration (IC50) means the concentration of test sample necessary for inhibiting PGE2 synthesis by 50% compared to non-inhibitory control sample. It can be also determined by measuring the amount of PGE2 produced by adding test samples to cells having cyclooxygenase activity. COX-1/COX-2 ratio means the ratio of […], and the higher the ratio is, the more specific to COX-2 the agent is.
To verify the results of Experiment 2, it was investigated that whether the activity of COXs, essential enzymes for PGE2 synthesis system, can be inhibited. […] An experimental system without the test samples was set as control. The residual activity of COX-1 or COX-2 was determined as relative activity versus control.

RAW264.7 cells [4] = experiment: NO production by macrophage RAW264.7, Griess method; assay type: cell-based, mouse; details: LPS + IFN-γ, 2 days, relative level versus control
From the text: As macrophage cells, RAW264.7 cell strain from mouse or macrophage cells obtained from laboratory animals such as mouse can be used. The amount of produced NO can be measured by conventional Griess method. […] RAW264.7 cells, a murine macrophage cell strain, were suspended in PRMI1640 medium supplied with 10% (v/v) fetal calf serum (hereinafter abbreviated as “FCS”) to give a cell suspension with a cell concentration of 1×10^6 cells/ml. […] The experimental system without the test samples described above was set as control. […] NO production, PGE2 production and macrophage growth are indicated as relative levels versus controls.

[5] = read-out: residual activity of COX-1

Nc1cc2nc3ccccc3oc-2cc1=O [2-Aminophenoxazine-3-one, 2-aminophenoxazine-3-one]
PGE2 production (%) (RAW264.7 cells [1]; 0.16 μM): 76% | PGE2 production (%) (RAW264.7 cells [1]; 0.31 μM): 45% | PGE2 production (%) (RAW264.7 cells [1]; 0.63 μM): 13% | PGE2 production (%) (RAW264.7 cells [1]; 1.3 μM): 6% | PGE2 production (%) (RAW264.7 cells [1]; 2.5 μM): 1% | PGE2 production (%) (RAW264.7 cells [1]; 5.0 μM): 3% | PGE2 production (%) (RAW264.7 cells [1]; 10 μM): 2% | Amount of melanin (%) ([2]; 0.5 μM): 74% | Amount of melanin (%) ([2]; 1 μM): 69% | Amount of melanin (%) ([2]; 2 μM): 61% | Macrophage growth (%) (RAW264.7 cells [3]; 0.16 μM): 117% | Macrophage growth (%) (RAW264.7 cells [3]; 0.31 μM): 121% | Macrophage growth (%) (RAW264.7 cells [3]; 0.63 μM): 127% | Macrophage growth (%) (RAW264.7 cells [3]; 1.3 μM): 127% | Macrophage growth (%) (RAW264.7 cells [3]; 2.5 μM): 119% | Macrophage growth (%) (RAW264.7 cells [3]; 5.0 μM): 112% | Macrophage growth (%) (RAW264.7 cells [3]; 10 μM): 86% | pIC50 (COX-1; PGE2 from arachidonic acid, read-out: IC50 COX-1): 5.19 | remaining activity at 1.9 µM (COX-1; [5]): 89% | remaining activity at 3.8 µM (COX-1; [5]): 59% | remaining activity at 7.6 µM (COX-1; [5]): 44% | NO production (%) (RAW264.7 cells [4]; 0.16 μM): 85% | NO production (%) (RAW264.7 cells [4]; 0.31 μM): 78% | NO production (%) (RAW264.7 cells [4]; 0.63 μM): 70% | NO production (%) (RAW264.7 cells [4]; 1.3 μM): 54% | NO production (%) (RAW264.7 cells [4]; 2.5 μM): 32% | NO production (%) (RAW264.7 cells [4]; 5.0 μM): 19% | NO production (%) (RAW264.7 cells [4]; 10 μM): 14%

— patent US20100324285A1, “ANTIINFLAMMATORY AGENT COMPRISING 2-AMINOPHENOL OR DERIVATIVE THEREOF AS ACTIVE INGREDIENT” (priority 2006, published 2010)
